Source: US7973075B2, “Kainate receptor-selective epimeric analogs of dysiherbaine” (priority 2007, dated 2011)
Where two headings read alike, the source gives them in different places.

Assays:
[1] = target: T1, GluR5 (Rattus norvegicus, UniProt P22756); test: Patch-clamp recordings from transfected HEK 293 cells, Example 1; format: cell-based; conditions: Example 1, FIG. 3 and 5
T1 construct: expressed in transfected cells; HEK 293 (patch clamp)
Procedure: (§1) Non-specific binding was defined in the presence of 1 mM glutamate. The effect of these analogs on electrophysiology was assessed as follows. HEK 293 cells were transfected with receptor cDNAs in combination with eGFP cDNA. Patch-clamp recordings from transfected cells were made 24-72 hours later using a fast application system described previously (Swanson et al., NEURON 1997; 19:913-26). (See FIG. 3.)
The effect of these analogs on electrophysiology also was assessed as described above. […] The results further indicate that the C8 and C9 substituents are necessary for binding to all AMPA and KAR subunits except for GluR5 subunits. The C9 polar group must be present and in the correct spatial orientation for high-affinity GluR5 subunit binding. Inter-domain contacts mediated by residue 721S are critical determinants of binding affinity. The epimer analog 9-deoxy-neoDH mimics the binding affinity of the di-deoxy analog MSVIII-19, but acts as an agonist rather than an antagonist.

[2] = target: T1, GluR5; test: Radioligand displacement ([3H]kainate), Example 1; format: binding
Procedure: (§2) Dysiherbaine (DH) was used as a template for generating novel KAR ligands. (See FIG. 1.) These included 8-deoxy and 9-deoxy analogs of neodysiherbaine (neoDH). (See FIG. 2.) The binding of these analogs to glutamate receptors was assessed by radioligand binding as follows. Membrane preparations from COS-7 or HEK-T/17 cells were isolated 2-3 days after transfection. Displacement assays were performed as described previously (Swanson et al., NEURON 1997; 19:913-26). Unlabeled marine toxin analogs were used to displace [^3H]kainate or [^3H]AMPA (PerkinElmer) from kainate and AMPA receptors, respectively. (See FIG. 2 and Table 1.)
as §1
(§3) Additional epimer analogs were generated. These included 4-epi-neodysiherbaine, 8-epi-neodysiherbaine, 9-epi-neodysiherbaine, and 8,9-epi-neodysiherbaine. (See FIG. 4.) The binding of these analogs to glutamate receptors was assessed by radioligand binding as described above. (See FIG. 4 and Table 2.)

[3] = target: T2, GluR6 (Rattus norvegicus, UniProt P42260); test: Radioligand displacement ([3H]kainate), Example 1; format: binding
T2 construct: expressed in transfected cells; HEK 293 (patch clamp)
T2 sequence (P42260 32-908): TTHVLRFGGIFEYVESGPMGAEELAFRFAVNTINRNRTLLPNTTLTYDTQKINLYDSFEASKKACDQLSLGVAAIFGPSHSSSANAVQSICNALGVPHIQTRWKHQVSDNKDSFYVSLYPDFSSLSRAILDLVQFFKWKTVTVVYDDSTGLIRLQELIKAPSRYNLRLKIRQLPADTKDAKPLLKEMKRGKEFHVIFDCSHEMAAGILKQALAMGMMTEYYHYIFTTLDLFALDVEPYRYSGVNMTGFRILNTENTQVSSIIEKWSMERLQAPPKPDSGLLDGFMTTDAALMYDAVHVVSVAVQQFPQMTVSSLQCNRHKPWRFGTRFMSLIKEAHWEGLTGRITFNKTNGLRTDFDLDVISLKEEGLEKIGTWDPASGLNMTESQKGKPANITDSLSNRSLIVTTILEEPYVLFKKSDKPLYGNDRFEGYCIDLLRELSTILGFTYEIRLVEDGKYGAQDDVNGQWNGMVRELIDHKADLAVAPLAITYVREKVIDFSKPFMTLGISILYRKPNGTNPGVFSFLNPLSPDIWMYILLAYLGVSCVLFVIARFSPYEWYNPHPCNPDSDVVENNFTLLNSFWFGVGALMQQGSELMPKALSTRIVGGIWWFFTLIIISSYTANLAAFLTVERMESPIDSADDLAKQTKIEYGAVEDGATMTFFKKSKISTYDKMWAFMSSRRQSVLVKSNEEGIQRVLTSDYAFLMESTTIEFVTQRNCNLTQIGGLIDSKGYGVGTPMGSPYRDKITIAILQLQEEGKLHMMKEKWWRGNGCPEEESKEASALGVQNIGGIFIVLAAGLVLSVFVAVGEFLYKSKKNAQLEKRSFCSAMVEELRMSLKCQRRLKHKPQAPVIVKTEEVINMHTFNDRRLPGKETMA
Procedure: as §2, §1, §3

[4] = target: T3, GluR7 (Rattus norvegicus, UniProt P42264); test: Radioligand displacement ([3H]kainate), Example 1; format: binding
T3 construct: expressed in transfected cells; host or cells: COS-7 or HEK-T/17
T3 sequence (P42264 32-919): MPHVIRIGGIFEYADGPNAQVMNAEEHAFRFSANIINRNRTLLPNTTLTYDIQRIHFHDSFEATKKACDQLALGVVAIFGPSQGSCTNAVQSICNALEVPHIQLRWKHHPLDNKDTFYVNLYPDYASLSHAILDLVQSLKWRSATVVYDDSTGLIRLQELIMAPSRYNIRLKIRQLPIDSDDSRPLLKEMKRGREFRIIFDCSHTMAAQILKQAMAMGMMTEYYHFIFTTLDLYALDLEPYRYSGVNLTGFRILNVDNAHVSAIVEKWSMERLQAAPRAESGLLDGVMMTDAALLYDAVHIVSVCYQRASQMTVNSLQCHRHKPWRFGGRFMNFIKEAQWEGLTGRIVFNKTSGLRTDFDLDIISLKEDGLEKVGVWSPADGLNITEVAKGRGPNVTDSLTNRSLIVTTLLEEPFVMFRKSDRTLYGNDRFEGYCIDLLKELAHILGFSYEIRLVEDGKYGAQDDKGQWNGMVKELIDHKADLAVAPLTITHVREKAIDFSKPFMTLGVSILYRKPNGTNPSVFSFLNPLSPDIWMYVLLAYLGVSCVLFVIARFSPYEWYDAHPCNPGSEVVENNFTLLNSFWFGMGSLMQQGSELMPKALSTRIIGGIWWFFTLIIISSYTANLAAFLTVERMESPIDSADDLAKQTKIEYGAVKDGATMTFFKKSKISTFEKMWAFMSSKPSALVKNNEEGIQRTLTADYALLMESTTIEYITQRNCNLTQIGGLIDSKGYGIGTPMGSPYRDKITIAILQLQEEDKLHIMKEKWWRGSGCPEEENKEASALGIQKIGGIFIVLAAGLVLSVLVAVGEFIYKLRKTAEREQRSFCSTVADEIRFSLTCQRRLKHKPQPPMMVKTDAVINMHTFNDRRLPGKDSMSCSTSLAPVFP
Procedure: as §2, §1, §3

[5] = target: T4, KA2 (Rattus norvegicus, UniProt Q63273); test: Radioligand displacement ([3H]kainate), Example 1; format: binding
T4 construct: expressed in transfected cells; host or cells: HEK-293-T/17
T4 sequence (Q63273 15-979): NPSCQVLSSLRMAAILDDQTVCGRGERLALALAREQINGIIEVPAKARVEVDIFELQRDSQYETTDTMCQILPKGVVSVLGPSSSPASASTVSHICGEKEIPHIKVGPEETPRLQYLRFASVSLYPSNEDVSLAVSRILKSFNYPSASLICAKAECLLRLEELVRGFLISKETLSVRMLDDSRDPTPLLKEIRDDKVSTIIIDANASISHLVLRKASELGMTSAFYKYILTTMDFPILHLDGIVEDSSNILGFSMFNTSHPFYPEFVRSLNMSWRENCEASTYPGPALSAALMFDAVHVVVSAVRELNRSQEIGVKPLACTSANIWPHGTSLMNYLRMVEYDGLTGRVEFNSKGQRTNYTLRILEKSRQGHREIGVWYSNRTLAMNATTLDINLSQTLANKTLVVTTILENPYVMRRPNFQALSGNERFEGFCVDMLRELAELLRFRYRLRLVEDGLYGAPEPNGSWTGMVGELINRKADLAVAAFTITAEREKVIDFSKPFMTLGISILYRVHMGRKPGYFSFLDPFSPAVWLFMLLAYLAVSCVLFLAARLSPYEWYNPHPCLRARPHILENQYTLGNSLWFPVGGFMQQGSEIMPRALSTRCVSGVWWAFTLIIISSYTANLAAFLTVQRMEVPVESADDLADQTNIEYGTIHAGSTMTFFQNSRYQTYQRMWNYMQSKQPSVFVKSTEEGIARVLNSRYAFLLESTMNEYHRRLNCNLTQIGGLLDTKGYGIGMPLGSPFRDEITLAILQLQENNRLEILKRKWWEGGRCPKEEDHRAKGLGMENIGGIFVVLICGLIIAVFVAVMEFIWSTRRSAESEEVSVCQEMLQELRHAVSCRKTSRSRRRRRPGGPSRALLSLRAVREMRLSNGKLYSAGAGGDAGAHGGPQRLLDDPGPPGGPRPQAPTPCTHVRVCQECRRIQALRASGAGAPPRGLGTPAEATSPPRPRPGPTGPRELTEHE
Procedure: as §2, §1, §3

[6] = Tables 1-2, read-out: GluR6 binding affinity (displacement of [3H]kainate)
[7] = Tables 1-2, read-out: GluR7 binding affinity (displacement of [3H]kainate)
[8] = Tables 1-2, read-out: KA2 binding affinity (displacement of [3H]kainate)
[9] = Tables 1-2, membranes of transfected COS-7 or HEK-T/17 cells, read-out: GluR5 binding affinity (displacement of [3H]kainate)

T1 sequence (P22756 with tags, fused parts or gaps isoform P22756-2): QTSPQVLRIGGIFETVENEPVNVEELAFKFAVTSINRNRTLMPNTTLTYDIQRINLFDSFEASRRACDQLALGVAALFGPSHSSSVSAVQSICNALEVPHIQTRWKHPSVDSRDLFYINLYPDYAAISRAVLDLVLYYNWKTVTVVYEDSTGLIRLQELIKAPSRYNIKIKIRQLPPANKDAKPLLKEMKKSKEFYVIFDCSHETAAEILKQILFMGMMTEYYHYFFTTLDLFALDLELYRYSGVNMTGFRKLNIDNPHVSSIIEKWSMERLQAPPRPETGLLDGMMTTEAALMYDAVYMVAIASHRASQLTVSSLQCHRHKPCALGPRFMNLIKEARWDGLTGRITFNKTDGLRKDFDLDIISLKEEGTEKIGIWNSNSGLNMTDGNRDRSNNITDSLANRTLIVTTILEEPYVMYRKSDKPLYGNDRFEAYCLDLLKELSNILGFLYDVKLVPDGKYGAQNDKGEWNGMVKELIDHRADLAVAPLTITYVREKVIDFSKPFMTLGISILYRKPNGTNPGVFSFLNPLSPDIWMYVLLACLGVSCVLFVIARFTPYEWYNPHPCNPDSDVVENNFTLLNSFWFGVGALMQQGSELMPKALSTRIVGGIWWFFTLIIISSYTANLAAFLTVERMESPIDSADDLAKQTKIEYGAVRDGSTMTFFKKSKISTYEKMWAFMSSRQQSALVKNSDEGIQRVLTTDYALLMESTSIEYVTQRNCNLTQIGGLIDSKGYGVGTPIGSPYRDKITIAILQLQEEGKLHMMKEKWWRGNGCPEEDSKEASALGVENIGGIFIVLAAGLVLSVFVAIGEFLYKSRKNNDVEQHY

Row | SMILES | agonist or antagonist at GluR5 (electrophysiology) [1] | Ki ([2]; Table 2, read-out: GluR5 binding affinity (displacement of [3H]kainate)) [µM] | Ki [3, 6] [µM] | Ki [4, 7] [µM] | Ki [5, 8] [µM] | Ki [2] [µM] | Ki [3] [µM] | Ki [4] [µM] | Ki [5] [µM] | Ki [2, 9] [µM]
1 | N[C@@H](C[C@@]1(C(=O)O)CC2OCC(O)C(O)C2O1)C(=O)O (single isomer, unassigned) [4-epi-neoDH, 4-epi-neodysiherbaine] | GluR5/GluR6 antagonist |  |  |  |  |  |  |  |  | 
2 | NC(CC1(C(=O)O)CC2OCC(O)C(O)C2O1)C(=O)O (stereo not drawn) [8,9-epi-neoDH, 8,9-epi-neodysiherbaine] | GluR5 antagonist | 48 | > 100 | > 100 | >100 |  |  |  |  | 
3 | N[C@@H](C[C@]1(C(=O)O)C[C@H]2OC[C@@H](O)C[C@H]2O1)C(=O)O [8-deoxy-neoDH] | GluR5 agonists |  |  |  |  | 0.0011 | 76 | 21 | 36 | 
4 | NC(CC1(C(=O)O)CC2OCC(O)C(O)C2O1)C(=O)O (stereo not drawn) [8-epi-neoDH, 8-epi-neodysiherbaine] | GluR5 agonist |  | 22 |  | >100 |  |  |  |  | 0.034
5 | N[C@@H](C[C@]1(C(=O)O)C[C@H]2OCC[C@@H](O)[C@H]2O1)C(=O)O [9-deoxy-neoDH] | GluR5 agonists |  | > 100 | > 100 | > 100 |  |  |  |  | 0.168
6 | NC(CC1(C(=O)O)CC2OCC(O)C(O)C2O1)C(=O)O (stereo not drawn) [9-epi-neoDH, 9-epi-neodysiherbaine] |  |  | > 100 | > 100 | >100 |  |  |  |  | 0.296
